These results are taken from patent US20240174638A1, “HETEROARYL DERIVATIVES AS APELIN RECEPTOR AGONISTS” (RESEARCH TRIANGLE INSTITUTE, priority 2021, published 2024).

In this assay the test system is bleomycin-induced pulmonary fibrosis in C57BL/6 mice. In words: 21-day non-GLP prophylactic bleomycin-induced pulmonary fibrosis study (oropharyngeal bleomycin; lung weight, BAL leukocytes). The assay is classed as in vivo, mouse. Here is the method: The objective of this non-GLP study was to evaluate the prophylactic efficacy of EXAMPLE 22 in a 21-day model of bleomycin-induced pulmonary fibrosis in mice.
Mice were administered bleomycin (Catalog number C-61703-323-22, lot number D011495AA, Hospira) via oropharyngeal route to induce lung fibrosis.
Bleomycin-induced animals were treated twice daily with either of the three different doses of EXAMPLE 22 or pirfenidone starting from a day prior to disease induction and continued till study termination. Study animals were harvested on day 21 post-bleomycin administration. As an end point analysis, fibrosis symptoms such as body weight, absolute lung weight, lung weight normalized to body weight, and total leukocytes in BAL fluid were evaluated and compared with vehicle-treated mice.
One week prior to study initiation, 88 C57BL/6 mice, six to eight weeks of age were obtained from Simonsen Laboratories (Gilroy, CA). Animals were weighed prior to study initiation and 60 animals were randomized into groups such that mean body weights were similar for the different groups. Remaining animals with lower or higher body weight were not included into the study. Food and water was provided ad libitum, with a light/dark cycle of 12 hours.

Where [1] appears, read: prophylactic treatment twice daily, 21-day.

For `O=C(O)C[C@H](CCN1CCCC(F)(F)C1)NC(=O)c1cc(-c2ccccc2C(F)(F)F)n(-c2nccs2)n1` [Example 22, (3S)-5-(3,3-difluoropiperidin-1-yl)-3-{[1-(1,3-thiazol-2-yl)-5-[2-(trifluoromethyl)phenyl]-1H-pyrazol-3-yl]formamido}pentanoic acid], the “effectiveness compared across doses” value (30 mg/kg) is listed as “somewhat more effective”. Moreover, for the setting “normalized to body weight, prophylactic treatment twice daily, 21-day”, the normalized lung weights entry is “reduced absolute and normalized lung weights”. Moreover, under setting [1], the absolute lung weights entry was “reduced absolute and normalized lung weights”; the “total number of leukocytes from bronchoalveolar lavage (BAL) fluid” value is recorded as “decreased total number of leukocytes”. Besides, where the note is “prophylactic treatment twice daily, 21-day non-GLP study”, the “overt symptoms associated with bleomycin administration” value is “improved the overt symptoms”.
